# Measurements published in the NIST ThermoML archive (doi:10.1016/j.fluid.2012.07.032).
# Numbers after ± are expanded uncertainties.
# How the values were obtained:
# [1] = refractive index (Na D-line) (dimensionless); conditions: 101.33 kPa, Liquid, Standard Abbe refractometry
# [2] = 101.33 kPa, Liquid, Vibrating tube method
Structure (SMILES),refractive index ([1]; 288.2 K),refractive index ([1]; 303.2 K),refractive index ([1]; 318.2 K),mass density ([2]; 288.2 K),mass density ([2]; 303.2 K),mass density ([2]; 318.2 K)
O=Cc1ccco1 [2-furaldehyde],1.528 ± 0.0004,1.5206 ± 0.0004,1.5133 ± 0.0004,1165.24 ± 0.37 kg/m3,1149.77 ± 0.35 kg/m3,1133.83 ± 0.34 kg/m3
CCCCO [butan-1-ol],1.4013 ± 0.0004,1.3952 ± 0.0004,1.3892 ± 0.0004,813.82 ± 0.14 kg/m3,802.407 ± 0.14 kg/m3,790.724 ± 0.15 kg/m3
CCOC(C)=O [ethyl acetate],1.3749 ± 0.0004,1.3672 ± 0.0004,1.3594 ± 0.0004,906.89 ± 0.11 kg/m3,888.196 ± 0.12 kg/m3,869.522 ± 0.12 kg/m3
CCCOC(C)=O [propyl ethanoate],1.3866 ± 0.0004,1.3792 ± 0.0004,1.3717 ± 0.0004,894.325 ± 0.082 kg/m3,877.529 ± 0.089 kg/m3,860.512 ± 0.095 kg/m3
O [water],1.3334 ± 0.0004,1.3319 ± 0.0004,1.3298 ± 0.0004,,,
